For the assay, the target named is Acetylcholinesterase (Electrophorus electricus, UniProt O42275). The assay can be described thus: Inhibition of Electrophorus electricus AChE by Ellman's method. (DTNB colorimetry detects thiols as they appear.)
Sequence of Acetylcholinesterase (O42275 whole entry): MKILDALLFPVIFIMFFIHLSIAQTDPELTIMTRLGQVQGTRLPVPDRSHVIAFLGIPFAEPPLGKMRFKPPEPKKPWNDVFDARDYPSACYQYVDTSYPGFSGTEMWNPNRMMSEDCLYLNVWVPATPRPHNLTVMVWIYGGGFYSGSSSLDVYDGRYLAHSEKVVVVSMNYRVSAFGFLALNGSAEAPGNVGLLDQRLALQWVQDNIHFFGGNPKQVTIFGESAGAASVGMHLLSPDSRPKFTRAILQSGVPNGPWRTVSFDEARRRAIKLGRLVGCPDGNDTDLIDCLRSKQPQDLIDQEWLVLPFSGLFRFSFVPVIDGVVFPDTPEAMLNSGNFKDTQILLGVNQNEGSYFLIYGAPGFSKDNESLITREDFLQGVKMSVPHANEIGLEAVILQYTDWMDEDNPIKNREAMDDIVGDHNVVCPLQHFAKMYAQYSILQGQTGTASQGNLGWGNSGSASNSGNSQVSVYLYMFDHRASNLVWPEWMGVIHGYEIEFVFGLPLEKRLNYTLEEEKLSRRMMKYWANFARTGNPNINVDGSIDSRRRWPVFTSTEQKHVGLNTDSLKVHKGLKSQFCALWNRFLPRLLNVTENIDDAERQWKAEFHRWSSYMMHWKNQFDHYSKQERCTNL

Broadly, the IC50 is the concentration needed to halve the response being measured. As to `COc1cc2c(cc1OC)C(=O)C(C(=O)c1c(Cl)cccc1Cl)C2` (centres undefined), the IC50 (read-out: IC50) worked out at 102 µM.

As to `COc1cc2c(cc1OC)C(=O)C(C(=O)c1cccc([N+](=O)[O-])c1)C2` (centres undefined), the IC50 result is “Not Active”.

For `COc1cc2c(cc1OC)C(=O)C(C(=O)c1cccs1)C2` (centres undefined), the IC50 (read-out: IC50) is 8.6 µM.

Turning to `COc1cc2c(cc1OC)C(=O)C(C(=O)c1ccc(Br)cc1)C2` (centres undefined), under “read-out: IC50”, the IC50 stood at 45 µM.

As for `COc1cc2c(cc1OC)C(=O)C(C(=O)c1ccc(C#N)cc1)C2` (centres undefined), under “read-out: IC50”, the IC50 was determined as 53 µM.

For `COc1cc2c(cc1OC)C(=O)C(C(=O)c1ccc(N(C)C)cc1)C2` (centres undefined), under “read-out: IC50”, the IC50 came to 29.4 µM.

In the case of `COc1ccc(C(=O)C2Cc3cc(OC)c(OC)cc3C2=O)cc1` (centres undefined), the IC50 (read-out: IC50) is 6.2 µM.

On to `COc1cc2c(cc1OC)C(=O)C(C(=O)c1ccc(Cl)cc1)C2` (centres undefined), for which, under “read-out: IC50”, the IC50 was 41.2 µM.

With `COc1cc2c(cc1OC)C(=O)C(C(=O)c1ccccc1)C2` (centres undefined), where the note is “read-out: IC50”, the IC50 was found to be 21 µM.

On to `COc1ccc(C(=O)C2Cc3cc(OC)c(OC)cc3C2=O)cc1OC` (centres undefined), for which the IC50 (read-out: IC50) was determined as 4.3 µM.

On to `COc1cc2c(cc1OC)C(=O)C(C(=O)c1cc(OC)c(OC)c(OC)c1)C2` (centres undefined), for which the IC50 (read-out: IC50) was found to be 2.7 µM.

Regarding `COc1cc2c(cc1OC)C(=O)C(C(=O)c1ccc(F)cc1)C2` (centres undefined), the IC50 (read-out: IC50) is 42 µM.

As to `COc1cc2c(cc1OC)C(=O)C(C(=O)c1ccccc1Cl)C2` (centres undefined), the IC50 (read-out: IC50) worked out at 64 µM.

As to `COc1cc2c(cc1OC)C(=O)C(C(=O)c1ccco1)C2` (centres undefined), where the note is “read-out: IC50”, the IC50 amounted to 9.4 µM.
